{"source": "patent US8445461B2", "about": "“Pharmaceutical composition for meniere's disease” (Setsuko Takeda, priority 2007, dated 2013)", "key": {"[1]": {"tested_on": "guinea pigs excreting normal feces", "assay": "Antidiarrheal effect: observation of feces after oral administration of saccharides or sugar alcohols with or without polysaccharides (Example 1)", "assay_type": "in vivo", "description": "The criteria for analyzing the conditions of feces (hardness, shape and spaces of feces in the intestine) are as shown in Table 2:\nThe hardness and microscopic findings of feces from the group administered with distilled water were assessed as “Normal” scoring 3, the feces having normal shape and the shape could rather easily change by pushing with fingers were assessed as “Slightly soft” scoring 2, those of which the shape had already changed or it could quite easily change by pushed with fingers were assessed as “Soft” scoring 1, and those of which the shape is muddy or watery or of no shape were assessed “Muddy” scoring 0. To be precese, there are no watery feces because of the nature of diets and thus the muddy feces correspond to watery and muddy feces in human.\nSince the muddy feces comprise large content of water, they induce the high abdominal pressure and the flatulence and distension. […] In the case of gas generation, it appears that noxious symptom such as the flatulence and distension are synergistically deteriorated. Therefore, we assessed not only based on the hardness of feces, but also the size, smoothness of the surface and amount of feces.\nIn these experiments, I observed is the diarrhea caused by saccharides or sugar alcohols and antidiarrhreal effect of saccharides. Guinea pigs orally received saccharides or sugar alcohols, for example tetrose such as erythritol, pentose such as xylitol or xylose, hexose such as isosorbitol or the like in combination with or without polysaccharides for observation of the feces up to 6 hours after the administration.\nGuinea pigs (body weight 280 to 320 g, normal feces) were divided into four groups: for Group 1-a, xylitol alone (Reference Example 1), or xylitol and xanthan gum or pectin; for Group 1-b, xylose alone (Reference Example 2), xylose and xanthan gum or pectin; for Group 1-c, erythritol alone (Reference Example 3), erythritol and pectin, erythritol and xanthan gum, or erythritol, pectin and natural aluminum silicate gel or calcium carbonate; and for Group 1-d, isosorbitol alone (Reference Example 4), or isosorbitol and xanthan gum or pectin were orally administered, respectively. The compounds are dissolved in distilled water and 8 ml/kg of said solution were administered as a single dose.\nThe feces were observed during 6 hours after the administration. When the animals fell into the most serious condition, the hardness and shape of the feces from said animals were assessed as the effect by saccharides or sugar alcohols in the animals."}, "guinea pigs": {"tested_on": "guinea pigs", "assay": "Reference Example 7: erythritol or isosorbitol added jelly, conditions of feces and gastrointestinal tract", "assay_type": "in vivo", "source_text": "As described hereinbefore, erythritol or isosorbitol as saccharides or sugar alcohols added jelly as a thickner were orally administered to 10 guinea pigs (280 to 350 g body weight) as shown in Table 41. The conditions of feces were observed."}, "[2]": {"assay": "Volume of agent: volume, weight and particle size of formulations (Example 4)", "assay_type": "physicochemical", "conditions": "21 g of erythritol", "description": "When erythritol is administered to an adult (60 kg body weight), the single dose may be 10 to 80 g, preferably 20 to 60 g. When 21 g of erythritol is administered as powder, the volume may be about 53 ml. Alternatively, administered as saturated aqueous solution, it requires 65 ml of distilled water, and volume and weight thereof is 78 ml and 86 g, respectively. Carrying it to administer 3 times daily is inconvenient for a patient with Meniere's disease.\n(§1) The volume of this gel formulation is 20.25 ml and the weight thereof is 36 g. By drying and grinding this gel formulation, the volume increases to 33 ml, however it is convenient for carrying. The particle size of dry milled powder is described in Table 44. If water (10 ml) is added thereto prior to use and mixed, a gel formulation (23 ml) is again obtained.\nas §1, with “26.1” for “36”, “31.5 ml.” for “33 ml, however it is convenient for carrying.”, “(3” for “(10”, “(24” for “(23”"}, "[3]": {"conditions": "active agent 2.8 g/kg oral, alone or with additives of the label, most serious condition within 6 hours"}, "[4]": {"conditions": "agent 2.8 g/kg oral + Jelly 0.05 g/kg, 5 animals"}, "[5]": {"conditions": "agent 2.8 g/kg oral + Jelly 0.1 g/kg, 5 animals"}, "[6]": {"conditions": "agent 2.8 g/kg oral + Jelly 0.15 g/kg, 5 animals"}, "[7]": {"conditions": "agent 2.8 g/kg oral, no additive dosage (agent alone)"}}}
{"smiles": "OC[C@@H](O)[C@@H](O)CO", "note": "[Erythritol, erythritol]", "values": [{"measurement": "Time after administration of the peak (most serious) diarrhea", "setting": "[1]; active agent 2.8 g/kg oral, alone or with additive of the label", "result": "Three hours after"}, {"measurement": "Hardness of feces: Hard (number of animals)", "setting": "[1]; [3]", "result": 0}, {"measurement": "Hardness of feces: Muddy (number of animals)", "setting": "[1]; [3]", "result": 5}, {"measurement": "Hardness of feces: Normal (number of animals)", "setting": "[1]; [3]", "result": 0}, {"measurement": "Hardness of feces: Slightly soft (number of animals)", "setting": "[1]; [3]", "result": 0}, {"measurement": "Hardness of feces: Soft (number of animals)", "setting": "[1]; [3]", "result": 0}, {"measurement": "Animals in which muddy feces continued up to 6 hours after", "setting": "[1]; erythritol 2.8 g/kg alone, 5 animals", "result": 3}, {"measurement": "Hardness of feces: Muddy (number of animals)", "setting": "guinea pigs; [4]", "result": 5}, {"measurement": "Hardness of feces: Normal (number of animals)", "setting": "guinea pigs; [4]", "result": 0}, {"measurement": "Hardness of feces: Slightly soft (number of animals)", "setting": "guinea pigs; [4]", "result": 0}, {"measurement": "Hardness of feces: Soft (number of animals)", "setting": "guinea pigs; [4]", "result": 0}, {"measurement": "Hardness of feces: Muddy (number of animals)", "setting": "guinea pigs; [5]", "result": 5}, {"measurement": "Hardness of feces: Normal (number of animals)", "setting": "guinea pigs; [5]", "result": 0}, {"measurement": "Hardness of feces: Slightly soft (number of animals)", "setting": "guinea pigs; [5]", "result": 0}, {"measurement": "Hardness of feces: Soft (number of animals)", "setting": "guinea pigs; [5]", "result": 0}, {"measurement": "Hardness of feces: Muddy (number of animals)", "setting": "guinea pigs; [6]", "result": 5}, {"measurement": "Hardness of feces: Normal (number of animals)", "setting": "guinea pigs; [6]", "result": 0}, {"measurement": "Hardness of feces: Slightly soft (number of animals)", "setting": "guinea pigs; [6]", "result": 0}, {"measurement": "Hardness of feces: Soft (number of animals)", "setting": "guinea pigs; [6]", "result": 0}, {"measurement": "Hardness of feces: Muddy (number of animals)", "setting": "guinea pigs; [7]", "result": 5}, {"measurement": "Hardness of feces: Normal (number of animals)", "setting": "guinea pigs; [7]", "result": 0}, {"measurement": "Hardness of feces: Slightly soft (number of animals)", "setting": "guinea pigs; [7]", "result": 0}, {"measurement": "Hardness of feces: Soft (number of animals)", "setting": "guinea pigs; [7]", "result": 0}, {"measurement": "Distilled water required for saturated aqueous solution", "setting": "[2]", "result": 65, "unit": "mL"}, {"measurement": "Volume as powder", "setting": "[2]", "result": "about 53 ml"}, {"measurement": "Volume of saturated aqueous solution", "setting": "[2]", "result": 78, "unit": "mL"}, {"measurement": "Weight of saturated aqueous solution", "setting": "[2]", "result": 86, "unit": "g"}]}
